# Measured values published in the supplement of paper PMC10307832.
# Compound: Cc1ccc(C(=O)Nc2ccc(CN3CCN(C)CC3)c(C(F)(F)F)c2)cc1C#Cc1cnc2cccnn12 [Ponatinib] + C[C@]1(O)C[C@@H](c2nc(-c3ccc4ccc(-c5ccccc5)nc4c3)c3c(N)nccn32)C1 [Linsitinib] (partner 1 µM)
# Assay: relative viability (nuclei count vs DMSO), 5 days (fraction); higher = more cells survive
# Conditions: first compound 0.002 µM
# In short: (§1)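 Lung cancer cell lines were seeded in 1536-well plates and dosed by pin tool the next day, with either a single drug or a fixed anchor-drug dose combined with five library-drug doses (not always all listed) spaced in √10 steps. Five days later, one step fixed the cells and stained their nuclei (final 0.05% Triton X-100, 1% formaldehyde, 1 ug/ml Hoechst), and nuclei were counted on 4× images. Relative viability is the nuclei count in treated wells divided by the count in vehicle wells, and each value is the median of duplicate plates.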
row,Cell Line,relative viability
1,NCI-H838,0.939
2,EBC-1,0.857
3,NCI-H1703,0.641
4,NCI-H1993,0.761
5,NCI-H2347,0.913
6,PC-14,0.927
7,LCLC-103H,0.952
8,NCI-H596,1.03
9,NCI-H2126,0.735
10,EMC-BAC-2,0.82
11,NCI-H2085,0.831
12,Calu-6,0.956
13,HCC-366,0.699
14,NCI-H1666,0.765
15,NCI-H647,1.22
16,LK-2,0.599
17,NCI-H2087,0.632
18,H3255,0.849

row,Cell Line,relative viability
1,COR-L23,0.9
2,COR-L 105,0.944
3,IA-LM,0.538
4,LOU-NH91,0.995
5,NCI-H358,0.847
6,NCI-H3122,0.982
7,HOP-62,0.902
8,HCC-44,0.657
9,A549,0.612
10,LU99A,0.5
11,BEN,0.858
12,HARA,0.916
13,HCC-78,0.412
14,NCI-H441,0.48
15,NCI-H2009,1.11
16,NCI-H1793,0.815
17,NCI-H1299,0.915

# Same assay, conditions: first compound 0.006325 µM
row,Cell Line,relative viability
1,NCI-H838,1.05
2,EBC-1,0.983
3,NCI-H1703,0.827
4,NCI-H1993,0.763
5,NCI-H2347,0.918
6,PC-14,0.91
7,LCLC-103H,1.15
8,NCI-H596,1.01
9,NCI-H2126,0.703
10,EMC-BAC-2,0.824
11,NCI-H2085,0.831
12,Calu-6,0.964
13,HCC-366,0.701
14,NCI-H1666,0.916
15,NCI-H647,1.01
16,LK-2,0.623
17,NCI-H2087,0.761
18,NCI-H1395,1.05
19,H3255,0.951

row,Cell Line,relative viability
1,COR-L23,0.826
2,COR-L 105,0.875
3,IA-LM,0.512
4,LOU-NH91,0.966
5,NCI-H358,0.771
6,NCI-H3122,1.02
7,HOP-62,0.663
8,HCC-44,0.71
9,A549,0.632
10,LU99A,0.501
11,BEN,0.985
12,HARA,0.916
13,HCC-78,0.519
14,NCI-H441,0.576
15,LCLC-97TM1,0.218
16,NCI-H2009,1.16
17,NCI-H1793,0.924
18,NCI-H1299,0.948

# Same assay, conditions: first compound 0.06325 µM
row,Cell Line,relative viability
1,NCI-H838,1.19
2,EBC-1,0.985
3,NCI-H1703,0.364
4,NCI-H1993,0.742
5,NCI-H2347,1.05
6,PC-14,1.13
7,LCLC-103H,1.15
8,NCI-H596,1.08
9,NCI-H2126,0.793
10,EMC-BAC-2,0.914
11,NCI-H2085,1.09
12,Calu-6,0.932
13,HCC-366,1.02
14,NCI-H1666,1.09
15,NCI-H647,1.05
16,LK-2,0.592
17,NCI-H2087,0.761
18,NCI-H1395,0.915

row,Cell Line,relative viability
1,H3255,1.06
2,COR-L23,0.889
3,COR-L 105,1.39
4,IA-LM,0.529
5,LOU-NH91,0.977
6,NCI-H358,0.758
7,NCI-H3122,1.01
8,HOP-62,0.868
9,HCC-44,0.744
10,A549,0.688
11,LU99A,0.611
12,BEN,0.846
13,HARA,0.976
14,HCC-78,0.605
15,NCI-H441,0.478
16,NCI-H2009,1.11
17,NCI-H1793,0.964
18,NCI-H1299,0.971

# Same assay, conditions: first compound 0.2 µM
row,Cell Line,relative viability
1,NCI-H838,0.858
2,EBC-1,0.927
3,NCI-H1703,0.25
4,NCI-H1993,0.819
5,NCI-H2347,0.974
6,PC-14,1.01
7,LCLC-103H,0.889
8,NCI-H596,0.792
9,NCI-H2126,0.809
10,EMC-BAC-2,0.776
11,NCI-H2085,0.741
12,Calu-6,0.747
13,HCC-366,0.606
14,NCI-H1666,0.859
15,NCI-H647,1.1
16,LK-2,0.351
17,NCI-H2087,0.893
18,NCI-H1395,0.832
19,H3255,0.885

row,Cell Line,relative viability
1,COR-L23,0.741
2,COR-L 105,1.04
3,IA-LM,0.535
4,LOU-NH91,0.942
5,NCI-H358,0.522
6,NCI-H3122,1.06
7,HOP-62,0.773
8,HCC-44,0.683
9,A549,0.591
10,LU99A,0.527
11,BEN,0.87
12,HARA,0.944
13,HCC-78,0.478
14,NCI-H441,0.5
15,LCLC-97TM1,0.197
16,NCI-H2009,1.1
17,NCI-H1793,0.762
18,NCI-H1299,0.951

# Compound: Cc1ccc(Nc2nccc(N(C)c3ccc4c(C)n(C)nc4c3)n2)cc1S(N)(=O)=O [Pazopanib] + COc1cccc2cc(-c3nc([C@H]4CC[C@H](C(=O)O)CC4)n4ncnc(N)c34)[nH]c12 [OSI-027] (partner 0.5 µM)
# Assay: as above
# Conditions: first compound 0.01 µM
# In short: as §1
row,Cell Line,relative viability
1,NCI-H2342,0.535
2,NCI-H1623,0.415
3,NCI-H838,0.435
4,NCI-H1650,0.727
5,NCI-H2347,0.425
6,PC-14,0.871
7,LCLC-103H,0.495
8,NCI-H2126,0.643
9,NCI-H2085,0.817
10,HCC-366,0.807
11,NCI-H1666,0.86
12,NCI-H647,0.594
13,LK-2,0.199
14,NCI-H2087,0.502
15,NCI-H1648,0.24
16,NCI-H1395,0.606
17,H3255,0.512

row,Cell Line,relative viability
1,COR-L23,0.91
2,COR-L 105,0.636
3,LOU-NH91,0.701
4,ChaGo-K-1,0.528
5,NCI-H358,0.843
6,NCI-H3122,0.985
7,HOP-62,0.787
8,HCC-44,0.405
9,NCI-H522,0.705
10,LU99A,0.29
11,HARA,0.581
12,SW 900,0.478
13,HCC-78,0.361
14,NCI-H441,0.6
15,LCLC-97TM1,0.5
16,NCI-H2009,0.576
17,NCI-H2170,0.728

# Same assay, conditions: first compound 0.03162 µM
row,Cell Line,relative viability
1,NCI-H2342,0.665
2,NCI-H1623,0.401
3,NCI-H838,0.488
4,NCI-H1650,0.759
5,NCI-H1993,0.603
6,NCI-H2347,0.465
7,PC-14,0.937
8,LCLC-103H,0.454
9,NCI-H596,0.74
10,NCI-H2126,0.612
11,EMC-BAC-2,0.424
12,NCI-H2085,0.782
13,HCC-366,0.992
14,NCI-H1666,0.953
15,NCI-H647,0.688
16,LK-2,0.228
17,NCI-H2087,0.567
18,NCI-H1648,0.219
19,NCI-H1395,0.741
20,H3255,0.535

row,Cell Line,relative viability
1,COR-L23,0.838
2,COR-L 105,0.665
3,LOU-NH91,0.753
4,ChaGo-K-1,0.504
5,NCI-H358,0.999
6,NCI-H3122,0.958
7,HOP-62,0.869
8,HCC-44,0.572
9,NCI-H522,0.662
10,LU99A,0.315
11,BEN,0.348
12,HARA,0.583
13,SW 900,0.535
14,HCC-78,0.423
15,NCI-H441,0.597
16,LCLC-97TM1,0.601
17,NCI-H2009,0.622
18,NCI-H1793,0.254
19,NCI-H2170,0.695

# Same assay, conditions: first compound 0.1 µM
row,Cell Line,relative viability
1,NCI-H2342,0.564
2,NCI-H1623,0.421
3,NCI-H838,0.373
4,NCI-H1650,0.744
5,NCI-H1993,0.599
6,NCI-H2347,0.402
7,PC-14,1.06
8,LCLC-103H,0.547
9,NCI-H596,0.568
10,NCI-H2126,0.68
11,EMC-BAC-2,0.394
12,NCI-H2085,0.752
13,HCC-366,0.823
14,NCI-H1666,0.882
15,NCI-H647,0.723
16,LK-2,0.185
17,NCI-H2087,0.489
18,NCI-H1648,0.242
19,NCI-H1395,0.605
20,H3255,0.638

row,Cell Line,relative viability
1,COR-L23,0.872
2,COR-L 105,0.635
3,LOU-NH91,0.719
4,ChaGo-K-1,0.541
5,NCI-H358,0.828
6,NCI-H3122,1.02
7,HOP-62,0.871
8,HCC-44,0.584
9,NCI-H522,0.705
10,LU99A,0.334
11,BEN,0.314
12,HARA,0.504
13,SW 900,0.515
14,HCC-78,0.348
15,NCI-H441,0.649
16,LCLC-97TM1,0.523
17,NCI-H2009,0.566
18,NCI-H1793,0.274
19,NCI-H2170,0.719

# Same assay, conditions: first compound 0.3162 µM
row,Cell Line,relative viability
1,NCI-H2342,0.624
2,NCI-H1623,0.448
3,NCI-H838,0.42
4,NCI-H1650,0.803
5,NCI-H1993,0.479
6,NCI-H2347,0.405
7,PC-14,0.849
8,LCLC-103H,0.482
9,NCI-H596,0.879
10,NCI-H2126,0.718
11,EMC-BAC-2,0.404
12,NCI-H2085,0.719
13,HCC-366,0.975
14,NCI-H1666,0.866
15,NCI-H647,0.902
16,LK-2,0.233
17,NCI-H2087,0.553
18,NCI-H1648,0.271
19,NCI-H1395,0.616

row,Cell Line,relative viability
1,H3255,0.606
2,COR-L23,0.832
3,COR-L 105,0.75
4,LOU-NH91,0.781
5,ChaGo-K-1,0.498
6,NCI-H3122,1.05
7,HOP-62,0.879
8,HCC-44,0.68
9,NCI-H522,0.636
10,LU99A,0.349
11,BEN,0.287
12,HARA,0.642
13,SW 900,0.588
14,HCC-78,0.411
15,NCI-H441,0.619
16,LCLC-97TM1,0.528
17,NCI-H2009,0.56
18,NCI-H1793,0.354
19,NCI-H2170,0.703

# Same assay, conditions: first compound 1 µM
row,Cell Line,relative viability
1,NCI-H2342,0.524
2,NCI-H1623,0.411
3,NCI-H838,0.555
4,NCI-H1650,0.699
5,NCI-H1993,0.461
6,NCI-H2347,0.344
7,PC-14,1.01
8,LCLC-103H,0.485
9,NCI-H596,0.632
10,NCI-H2126,0.719
11,EMC-BAC-2,0.399
12,NCI-H2085,0.787
13,HCC-366,0.945
14,NCI-H1666,0.948
15,NCI-H647,0.739
16,LK-2,0.171
17,NCI-H2087,0.487
18,NCI-H1648,0.235
19,NCI-H1395,0.706
